Measurements: paper PMC10138714, “Evaluation of Some Safety Parameters of Dual Histamine H3 and Sigma-2 Receptor Ligands with Anti-Obesity Potential” (International Journal of Molecular Sciences, 2023)

Key:
[1] = biological target: T1, human ERG potassium channel (Kv11.1) (Homo sapiens, UniProt Q12809); assay: Whole-cell automated patch clamp (QPatch16X), inhibition of hERG currents; format: cell-based; details: for IC50: CHO cells stably expressing human ERG, whole-cell, mean of three experiments, read-out: Mean IC50 ± SEM, inhibition of hERG currents; for Inhibition of hERG compared with verapamil: relative to reference compound verapamil
T1 construct: expressed in transfected cells
Experimental: Electrophysiology experiments were performed on a QPatch16X automatic patch clamp platform (Sophion Bioscience, Ballerup, Denmark). Chinese hamster ovary (CHO) cells stably expressing the human ERG potassium channel (Kv11.1) were cultured using standard procedures. On the day of the experiment, cells were collected from the culture flask using TrypLE Express solution (Life Technologies, Thermo Fisher Scientific, Carlsbad, California, United States) and resuspended in EX-CELL ACF CHO serum-free medium (Merck KGaA, Sigma-Aldrich, Darmstadt, Germany), supplemented with 25 mM HEPES, 100 U/mL penicillin/streptomycin, and 0.04 mg/mL soybean trypsin inhibitor (all components from Sigma Aldrich).
The cells were placed in the lidless microtube and located onboard the automated electrophysiology instrument, where they were automatically relocated to a built-in centrifuge.
Cells were transferred to pipetting wells of single-use 16-channel planar patch chip plates (QPlate 16X, Sophion Bioscience, Ballerup, Denmark) and gigaseals were formed upon application of a combined suction/voltage protocol in a standard protocol supplied by Sophion Bioscience for CHO cells. Once the whole-cell mode was obtained, the cells were kept in a holding potential of -90 mV between the programmed stimulation protocols.
Whole-cell potassium currents were measured in response to repeatedly executed voltage protocols constituted of the following steps: brief clamping to −50 mV (200 ms), subsequent depolarization to 20 mV for 4000 ms, and final repolarization to −50 mV when the outward tail current was measured for 4000 ms.
The average current peak values determined in the presence of particular concentrations of the compound tested were subjected to a sigmoidal dose–response curve fitting, where the bottom plateau parameter was constrained to 0. The IC50 values were then calculated from the obtained sigmoidal dose–response curves. Data were analyzed using QPatch Assay Software (v5.0, Sophion Bioscience, Ballerup, Denmark) and represent the mean of three experiments carried out on distinct cells.

[2] = system: rats fed a palatable diet; assay: Plasma AlaT, AspaT, gGT and ALP activity after repeated administration in rats fed a palatable diet; format: in vivo; details: 10 mg/kg b.w. i.p. repeated; for Plasma gGT activity: vs palatable feed-fed control group; for Plasma AlaT activity: vs vehicle control fed palatable feed
Experimental: Standard diet ( 8% fats, 67% carbohydrates, and 25% proteins) contained 100 g feed—280 kcal. Rats fed a palatable diet had access to a diet consisting of milk chocolate with nuts, cheese, salted peanuts, and 7% condensed milk and simultaneously to standard feed (Labofeed B, Morawski Manufacturer Feed, Kcynia, Poland) for 4 weeks. The feeding was not in any way forced, and rats decided themselves when, what, and how much to eat. A palatable diet contained 100 g of peanuts—612 kcal; 100 mL of condensed milk—131 kcal; 100 g of milk chocolate—529 kcal; and 100 g of cheese—325 kcal.
The study evaluating the activities of alanine aminotransferase (AlaT), aspartate aminotransferase (AspaT), gamma-glutamyl transpeptidases (gGT), and alkaline phosphatase (ALP) was carried out after completing the excessive eating model experiments described in our previous work. Compounds were administered for twenty-eight days at a dose of 10 mg/kg b.w./day. On the 31st day of the experiment, 20 min after i.p. administration of heparin (5000 units/rat) and thiopental (70 mg/kg b.w.), blood was collected from the left carotid artery and then centrifuged at 600× g (15 min, 4 °C) in order to obtain the plasma. To determine the activities of AlaT, AapaT, gGT, and ALP in the plasma samples, a standard enzymatic spectrophotometric test (Biomaxima S.A., Lublin, Poland) was used.

[3] = biological target: σ1R; parameters: method as in PMID 34908391; details: cited from earlier work; for σ1/σ2: ratio of Ki values
[4] = biological target: σ2R; parameters: method as in PMID 34908391; details: cited from earlier work
[5] = system: mice; assay: Locomotor activity in mice (activity cages, photobeam breaks); format: in vivo, male Albino Swiss (CD-1) mice; details: vs vehicle group
Experimental: (§1) Blood pressure measurement and ECG were performed on male Wistar rats weighing 200–220 g (six months old). Locomotor activity and chimney tests were performed on adult male Albino Swiss (CD-1) mice weighing 18–22 g ([…]). The animals were obtained from an accredited animal house at the Faculty of Pharmacy, Jagiellonian University Medical College, Krakow, Poland. The experimental groups consisted of 6–8 animals. The animals were housed in constant temperature (22–24 °C) and humidity (40–60%) facilities, exposed to 12:12 h light/dark cycles, and were maintained on a standard pellet diet with tap water available ad libitum. Rats and mice were housed in pairs or 8 animals per home cage, respectively.
Locomotor activity was individually recorded for each animal using specifically designed activity cages made of clear Perspex (40 cm × 40 cm × 31 cm, Activity Cage 7441, Ugo Basile, Italy). The cages were supplied with I.R. horizontal beam emitters connected to a counter that records the light-beam interruptions. The compounds suspensions were administered as i.p. injections 30 min before testing. Control animals received injections of vehicles. Each mouse was placed in a cage for a 30 min habituation period. After that time, the number of breaks in the photobeams was measured for 5 min, which is the same time as the observation period used in other tests.

[6] = system: rats; assay: Heart rate and ECG intervals in rats; format: in vivo, male Wistar rats; details: 10 mg/kg i.p.
Experimental: as §1
In vivo electrocardiographic measurements were performed using an ASPEL ASCARD B5 apparatus, standard lead II, and a paper speed of 50 mm/s. The study was carried out after a single administration of the test compounds (10 mg/kg i.p.). […] The following parameters were then calculated and analyzed: duration of PQ, QT, QRS, RR intervals, and heart rate.

[7] = biological target: H3R; parameters: method as in PMID 34908391; details: cited from earlier work; for H3/σ1 / H3/σ2: ratio of Ki values
[8] = system: mice; assay: Motor coordination in the chimney test; format: in vivo, male Albino Swiss (CD-1) mice; details: chimney test, 30 min after injection, n = 8
Experimental: as §1
The effect of tested compounds on motor impairment were quantified with the chimney test of Boissier et al. (1960). The mice were trained before the test, and only the animals able to get out of the chimney within 1 min were used at the experimental stage. The selected mice were placed in a 25 cm-long and 2.5 cm in diameter […] tube, which was reversed so that the mice could leave it only by climbing up backward until they reached the other end. The test was performed 30 min after injection (i.p.) of the examined compounds. Motor impairment was indicated by the inability of the animals to climb up backwards in the transparent tube within 60 s.

[9] = system: normotensive rats; assay: Blood pressure in anesthetized normotensive rats (carotid artery cannulation); format: in vivo, male Wistar rats; details: for Decrease of diastolic blood pressure / Decrease of systolic blood pressure: single i.p. 10 mg/kg b.w., 30–60 min after administration
Experimental: as §1
Rats were anesthetized with thiopental (70 mg/kg) via i.p. injection. The left carotid artery was cannulated with polyethylene tubing filled with a heparin solution in saline to facilitate pressure measurements using a PowerLab Apparatus (ADInstruments, Sydney, Australia). After a 20 min stabilization period, the test compounds were administered i.p. at a dose of 10 mg/kg b.w. in a constant volume of 1 mL/kg b.w. Blood pressure was recorded immediately before administration and 5, 10, 15, 20, 30, 40, 50, and 60 min after the administration of the test compound [47].

[10] = vs vehicle group with palatable feed

T1 sequence (Q12809 whole entry): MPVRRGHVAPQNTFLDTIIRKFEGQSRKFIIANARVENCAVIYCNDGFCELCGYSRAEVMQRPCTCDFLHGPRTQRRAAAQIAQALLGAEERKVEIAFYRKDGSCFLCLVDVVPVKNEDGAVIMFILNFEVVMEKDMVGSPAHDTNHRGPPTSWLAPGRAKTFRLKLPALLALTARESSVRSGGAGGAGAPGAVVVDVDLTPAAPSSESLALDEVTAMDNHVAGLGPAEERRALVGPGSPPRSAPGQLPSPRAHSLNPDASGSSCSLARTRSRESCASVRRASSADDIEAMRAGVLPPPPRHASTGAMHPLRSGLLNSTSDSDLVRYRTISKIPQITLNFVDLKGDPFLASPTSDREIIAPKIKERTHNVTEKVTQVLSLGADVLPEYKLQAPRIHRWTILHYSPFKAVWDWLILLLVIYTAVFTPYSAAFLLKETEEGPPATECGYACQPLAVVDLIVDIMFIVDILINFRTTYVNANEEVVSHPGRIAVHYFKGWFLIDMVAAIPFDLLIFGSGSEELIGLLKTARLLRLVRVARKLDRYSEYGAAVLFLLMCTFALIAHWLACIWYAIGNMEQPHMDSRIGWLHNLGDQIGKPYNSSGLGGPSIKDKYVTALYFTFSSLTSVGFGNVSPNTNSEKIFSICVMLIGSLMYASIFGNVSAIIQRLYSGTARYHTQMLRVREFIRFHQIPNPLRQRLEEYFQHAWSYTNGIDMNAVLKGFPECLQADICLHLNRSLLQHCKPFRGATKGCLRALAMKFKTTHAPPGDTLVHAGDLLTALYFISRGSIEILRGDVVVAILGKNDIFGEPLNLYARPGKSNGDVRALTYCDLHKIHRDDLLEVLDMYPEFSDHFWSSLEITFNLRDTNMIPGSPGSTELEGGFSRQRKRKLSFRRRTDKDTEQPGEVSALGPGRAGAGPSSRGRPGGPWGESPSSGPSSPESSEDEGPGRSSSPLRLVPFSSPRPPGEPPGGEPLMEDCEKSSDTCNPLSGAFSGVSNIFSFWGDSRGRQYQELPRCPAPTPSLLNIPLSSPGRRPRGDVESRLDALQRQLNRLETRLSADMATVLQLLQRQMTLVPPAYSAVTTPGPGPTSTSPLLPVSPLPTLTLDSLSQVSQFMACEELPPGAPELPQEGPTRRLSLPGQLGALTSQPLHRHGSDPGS

Plasma AlaT activity [2]	Locomotor activity ([5]; single i.p. 30 mg/kg b.w.)	SMILES	IC50 [1]	Inhibition of hERG compared with verapamil [1]	Ki [3]	σ1/σ2 [3]	Ki [4]	Heart rate ([6]; time 0 min)	PQ ([6]; time 0 min)	QRS ([6]; time 0 min)	QT ([6]; time 0 min)	Heart rate ([6]; time 15 min)	PQ ([6]; time 15 min)	QRS ([6]; time 15 min)	QT ([6]; time 15 min)	Heart rate ([6]; time 30 min)	PQ ([6]; time 30 min)	QRS ([6]; time 30 min)	QT ([6]; time 30 min)	Heart rate ([6]; time 45 min)	other results
lower	significant decrease	CC(=O)c1ccc(OCCCCCCCCN2CCN(c3ccncc3)CC2)cc1 [KSK-73]	2.07 ± 0.402 µM	four times weaker	0.408 µM	6.84	0.0597 µM	370.0 ± 23.9 beats/min	56.3 ± 2.2 ms	22.7 ± 5.4 ms	61.3 ± 2.2 ms	375.5 ± 23.9 beats/min	51.3 ± 2.2 ms	22.7 ± 5.4 ms	63.8 ± 4.1 ms	377.1 ± 27.3 beats/min	51.3 ± 2.2 ms	22.7 ± 5.4 ms	60.0 ± 7.1 ms	395.8 ± 33.3 beats/min	Plasma gGT activity [2]: statistically lower gGT activity; Plasma ALP activity [2, 10]: lower plasma ALP activity; PQ ([6]; time 45 min): 52.5 ± 2.5 ms; QRS ([6]; time 45 min): 20.0 ± 0.0 ms; QT ([6]; time 45 min): 58.8 ± 2.2 ms; Heart rate ([6]; time 60 min): 377.0 ± 26.4 beats/min; PQ ([6]; time 60 min): 53.8 ± 2.2 ms; QRS ([6]; time 60 min): 20.0 ± 0.0 ms; QT ([6]; time 60 min): 63.8 ± 6.5 ms; Ki [7]: 0.0405 µM; H3/σ1 [7]: 0.1; H3/σ2 [7]: 0.68; % of Mice Impaired ([8]; 10 mg/kg i.p.): 12.5%; % of Mice Impaired ([8]; 20 mg/kg i.p.): 0%; % of Mice Impaired ([8]; 30 mg/kg i.p.): 0%; Decrease of diastolic blood pressure [9]: 10–14 mmHg; Decrease of systolic blood pressure [9]: approx. 12 mmHg
lower	No significant changes	CCC(=O)c1ccc(OCCCCCCCCN2CCN(c3ccncc3)CC2)cc1 [KSK-74]	3.4 ± 0.289 µM	almost seven times weaker	0.274 µM	4.16	0.0659 µM	381.8 ± 19.9 beats/min	56.3 ± 4.1 ms	20.0 ± 0.0 ms	62.5 ± 4.3 ms	356.3 ± 18.9 beats/min	53.8 ± 4.1 ms	20.0 ± 0.0 ms	60.0 ± 5.0 ms	355.3 ± 32.2 beats/min	56.3 ± 2.2 ms	20.0 ± 0.0 ms	61.3 ± 6.5 ms	364.6 ± 18.1 beats/min	Plasma ALP activity [2, 10]: lower plasma ALP activity; Locomotor activity ([5]; single i.p. 10 mg/kg b.w., 30 min before test): significantly increased; PQ ([6]; time 45 min): 57.5 ± 2.5 ms; QRS ([6]; time 45 min): 20.0 ± 0.0 ms; QT ([6]; time 45 min): 65.0 ± 6.1 ms; Heart rate ([6]; time 60 min): 370.8 ± 23.9 beats/min; PQ ([6]; time 60 min): 55.0 ± 5.0 ms; QRS ([6]; time 60 min): 20.0 ± 0.0 ms; QT ([6]; time 60 min): 62.5 ± 8.3 ms; Ki [7]: 0.0389 µM; H3/σ1 [7]: 0.14; H3/σ2 [7]: 0.59; % of Mice Impaired ([8]; 10 mg/kg i.p.): 0%; % of Mice Impaired ([8]; 20 mg/kg i.p.): 12.5%; % of Mice Impaired ([8]; 30 mg/kg i.p.): 12.5%; Decrease of diastolic blood pressure [9]: 10–13 mmHg; Decrease of systolic blood pressure [9]: approx. 12 mmHg

SMILES	Plasma AlaT activity [2]	Locomotor activity ([5]; single i.p. 30 mg/kg b.w.)	IC50 [1]	Inhibition of hERG compared with verapamil [1]	Ki [3]	σ1/σ2 [3]	Ki [4]	Heart rate ([6]; time 0 min)	PQ ([6]; time 0 min)	QRS ([6]; time 0 min)	QT ([6]; time 0 min)	Heart rate ([6]; time 15 min)	PQ ([6]; time 15 min)	QRS ([6]; time 15 min)	QT ([6]; time 15 min)	Heart rate ([6]; time 30 min)	PQ ([6]; time 30 min)	QRS ([6]; time 30 min)	QT ([6]; time 30 min)	Heart rate ([6]; time 45 min)	other results
O=C(c1ccccc1)c1ccc(OCCCN2CCN(c3ccncc3)CC2)cc1 [KSK-63]	lower	significant decrease	0.57 ± 0.05 µM	close to the reference compound	0.726 µM	24.83	0.0292 µM	393.8 ± 34.8 beats/min	57.5 ± 2.5 ms	20.0 ± 0.0 ms	63.3 ± 5.1 ms	362.8 ± 38.0 beats/min	55.0 ± 5.0 ms	20.0 ± 0.0 ms	64.4 ± 2.6 ms	365.2 ± 34.8 beats/min	58.75 ± 1.3 ms	20.0 ± 0.0 ms	65.3 ± 4.7 ms	344.3 ± 30.8 beats/min	Plasma AspaT activity ([2]; relative to both control groups (standard or palatable feed)): higher AspaT activity; Plasma ALP activity ([2]; vs control group fed standard feed): greater ALP activity; Plasma gGT activity [2]: statistically lower gGT activity; PQ ([6]; time 45 min): 55.0 ± 5.0 ms; QRS ([6]; time 45 min): 20 ± 0.0 ms; QT ([6]; time 45 min): 62.1 ± 1.6 ms; Heart rate ([6]; time 60 min): 344.3 ± 30.8 beats/min; PQ ([6]; time 60 min): 62.5 ± 2.1 ms; QRS ([6]; time 60 min): 20.0 ± 0.0 ms; QT ([6]; time 60 min): 65.2 ± 3.6 ms; H3/σ1 [7]: 0.004; H3/σ2 [7]: 0.11; % of Mice Impaired ([8]; 10 mg/kg i.p.): 0%; % of Mice Impaired ([8]; 20 mg/kg i.p.): 0%; % of Mice Impaired ([8]; 30 mg/kg i.p.): 0%; Increase of systolic blood pressure ([9]; single i.p. 10 mg/kg b.w., 5, 10 and 20 min after administration): 16–22 mmHg
